From PubChem BioAssay (NCI)
Values joined by “and” are separate entries in the source; they are usually repeats but may differ in a detail not shown here. Identical values can stand only once.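 Method: 48-hour compound exposure of cells in 96-well plates, five concentrations, linear interpolation of endpoints. GI50: concentration for 50% inhibition of growth. TGI denotes the concentration required for complete inhibition of growth.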 *1 amine or outer side, *2 acyl side, *3 side chain or, on linkers, in order; H or OH if unused. Where a SMILES comes first, the peptide text is derived from it. Bridges are numbered along the chain shown (N, C = ends). Roman numbers before positions name the chains, in order. [ ]: non-standard residue; d: D form. Actinocin(9to1) = Cc1c2oc3c(C)ccc(C(=O)[*:1])c3nc-2c(C(=O)[*:2])c(N)c1=O; NMeV = CN[CH](C(=O)O)C(C)C; Sar = CNCC(=O)O

Tests used:
Assay in all cases: DTP human tumour cell line panel, 48 h
K-562 leukemia = test system: K-562 leukemia
NCI-H522 lung = test system: NCI-H522 lung
SK-MEL-2 melanoma = test system: SK-MEL-2 melanoma
SW-620 colon = test system: SW-620 colon
UACC-257 melanoma = test system: UACC-257 melanoma
HCT-15 colon = test system: HCT-15 colon
HOP-62 NSCLC = test system: HOP-62 NSCLC
MALME-3M melanoma = test system: MALME-3M melanoma
MCF7 breast = test system: MCF7 breast
KM12 colon = test system: KM12 colon

SMILES	GI50 (K-562 leukemia)	TGI (K-562 leukemia) [µM]	GI50 (NCI-H522 lung)	TGI (NCI-H522 lung)	GI50 (SK-MEL-2 melanoma)	TGI (SK-MEL-2 melanoma)	GI50 (SW-620 colon)	TGI (SW-620 colon)	GI50 (UACC-257 melanoma)	TGI (UACC-257 melanoma)	GI50 (HCT-15 colon)	TGI (HCT-15 colon)	GI50 (HOP-62 NSCLC) [nM]	TGI (HOP-62 NSCLC)	GI50 (MALME-3M melanoma)	TGI (MALME-3M melanoma)	GI50 (MCF7 breast) [nM]	TGI (MCF7 breast)	GI50 (KM12 colon)	TGI (KM12 colon)
O=C1Nc2ccccc2/C1=C\c1cccc(/C=C2/C(=O)Nc3ccccc32)n1	291 nM	> 37.9	208 nM	0.705 µM	631 nM	1.62 µM	162 nM	0.329 µM	241 nM	0.633 µM	219 nM	0.618 µM	1960	3.92 µM	300 nM	1.08 µM	226	0.851 µM	282 nM	1.02 µM
COC12C=C/C(=C(/C(=O)OCCSc3ccnn3C)C(=O)CCCCCCCCC3(OC)C=C/C(=C(/C(=O)OCCSc4ccnn4C)C(=O)CCCCCCCC1)O3)O2	1050 nM	18	648 nM	1.62 µM	928 nM	2.8 µM	1070 nM	5.38 µM	1350 nM	11.4 µM	1080 nM	4.39 µM	950	2.81 µM	776 nM	2.32 µM	927	15.2 µM	813 nM	2.1 µM
CN(C)C[C@H]1CCn2c(c(C3=C(c4cn(C)c5ccccc45)C(=O)NC3=O)c3ccccc32)C1	5290 nM	10.8	4860 nM	9.17 µM	4970 nM	9.23 µM	4420 nM	8.89 µM	4450 nM	8.45 µM	4510 nM	14.8 µM	4570	8.58 µM	4240 nM	8.56 µM	4250	9.36 µM	4570 nM	8.66 µM
Cc1cn(CCC(N)C(=O)O)c(=O)[nH]c1=O (stereo not drawn)		> 100		> 100 µM		> 100 µM		> 100 µM		> 100 µM		> 100 µM		> 100 µM		> 100 µM		> 100 µM		> 100 µM
COc1ccc(C(C#N)=C2C=CC(=NO)C=C2)cc1	7260 nM	> 100	1230 nM	3.41 µM	2590 nM	6.18 µM	2090 nM	4.39 µM	10500 nM	30.6 µM	11700 nM	26.1 µM	2470	6.5 µM	12400 nM	27.5 µM	2880	13.8 µM	1790 nM	4.04 µM
CC(=O)NNc1nc(C)c(C(/C=C/c2ccc([N+](=O)[O-])cc2)=N/NC(N)=O)s1		> 100		> 100 µM		> 100 µM		> 100 µM		> 100 µM		> 100 µM		> 100 µM		> 100 µM		> 100 µM		> 100 µM
CC(CN1CC(=O)NC(=O)C1)N1CC(=O)NC(=O)C1 (stereo not drawn)		> 750		> 724 µM		741 µM		> 750 µM		> 750 µM		> 750 µM	114000	709 µM		355 µM		> 750 µM		> 729 µM
CCOc1cc(C(=O)O)c2c(ccc3ccc(OC)c(OC)c32)c1OC		> 100		> 100 µM		> 100 µM		> 100 µM		> 100 µM		> 100 µM		> 100 µM		> 100 µM		> 100 µM		> 100 µM
Cc1cc(C(=O)Nc2cc(Oc3ccc4nc(NC(=O)C5CC5)cn4n3)ccc2C)n(C)n1	555 nM	> 10	> 10000 nM	> 10 µM	> 10000 nM	> 10 µM	> 10000 nM	> 10 µM	> 10000 nM	> 10 µM	6490 nM	> 10 µM	> 10000	> 10 µM	> 10000 nM	> 10 µM	6410	> 10 µM	> 10000 nM	> 10 µM
Clc1ccccc1[C@@H]1C[C@@H]2Cc3cc(Br)c4ccccc4c3N1O2	3920 nM	> 100	2310 nM	6.51 µM	2540 nM	6.61 µM	3690 nM	> 100 µM	3770 nM	> 100 µM	4390 nM	> 100 µM	5700	> 100 µM	4830 nM	> 100 µM	3610	> 100 µM	4230 nM	> 100 µM
O=C1NCN(c2ccccc2)C12CCN(CCCC(c1ccc(F)cc1)c1ccc(F)cc1)CC2	1710 nM	4.11	1510 nM	2.93 µM	1560 nM	2.98 µM	2060 nM	4.58 µM	1590 nM	3.15 µM	2090 nM	4.71 µM	1840	3.52 µM	1660 nM	3.46 µM	1880	5.65 µM	2140 nM	4.38 µM
COC1CC(C)C(OC)c2cc(O)cc(c2O)NC(=O)/C(C)=C/C=C\C(C)C(OC(N)=O)/C(C)=C\C(C)C1OC (stereo not drawn)	33.3 nM and 143 nM and 78.5 nM		57.5 nM and 98.9 nM	0.683 µM and 0.913 µM	683 nM and 1160 nM	16 µM and 11.9 µM	54.4 nM and 64.9 nM	3.7 µM and 3.97 µM	561 nM and 693 nM	10.3 µM and 10.5 µM	4910 nM	11.9 µM and 12.7 µM	413	36.9 µM and 12.2 µM	749 nM and 503 nM	4.89 µM and 7.39 µM	48.2	10.5 µM	111 nM and 184 nM	1.9 µM and 2.83 µM
Cc1c2oc3c(C)ccc(C(=O)OC(C)C4NC(=O)C(C(C)C)N(C)C(=O)CN(C)C(=O)C5CCCN5C(=O)C(C(C)C)NC4=O)c3nc-2c(C(=O)OC(C)C2NC(=O)C(C(C)C)N(C)C(=O)CN(C)C(=O)C3CCCN3C(=O)C(C(C)C)NC2=O)c(N)c1=O (stereo not drawn) (I: cyclo([Sar][NMeV]TVP) / II: cyclo([Sar][NMeV]TVP); linker I:3-II:3 via Actinocin(9to1); configuration not given here)	< 10 nM	> 100	< 10 nM	< 0.0116 µM	< 10 nM	< 0.0152 µM	< 10 nM	17.7 µM	< 10 nM		39.6 nM	> 100 µM	< 10	0.0883 µM	< 10 nM	0.0282 µM	< 10	> 100 µM	< 10 nM	0.793 µM
COC(NC(N)=O)C(=O)O (stereo not drawn)		> 100		> 100 µM		> 100 µM		> 100 µM		> 100 µM		> 100 µM		> 100 µM		> 100 µM		> 100 µM		> 100 µM
Oc1[nH]c(N=C2N=c3ccccc3=N2)c2ccccc12	9860 nM	> 100	11200 nM	41.6 µM	11100 nM	29.7 µM	10600 nM	32.4 µM	13700 nM	> 100 µM	3540 nM	> 100 µM	10100	22.9 µM	9690 nM	37.6 µM	2650	23.7 µM	11500 nM	42.9 µM
O=C(O)C(Br)C(Br)C(=O)O (stereo not drawn)		> 100		> 100 µM		> 100 µM		> 100 µM		> 100 µM		> 100 µM		> 100 µM		> 100 µM		> 100 µM		> 100 µM
COc1ccc(-c2nsc3c2NC(=O)CC3c2ccc3c(c2)OCCO3)cc1 (stereo not drawn)	367 nM	> 100	551 nM	> 100 µM	7240 nM	> 100 µM	384 nM	> 100 µM	981 nM	> 100 µM	504 nM	> 100 µM	585	> 100 µM	336 nM	> 100 µM	371	> 100 µM	521 nM	> 100 µM
O=C1NC(O)c2ccccc2O1 (stereo not drawn)		> 100		> 100 µM		> 100 µM		> 100 µM		> 100 µM		> 100 µM		> 100 µM		> 100 µM		> 100 µM		> 100 µM
C=C1C(=O)O[C@H]2[C@H]1CC/C(Cn1cc(Cc3c[nH]c4ccccc34)nn1)=C\CC[C@@]1(C)O[C@@H]21	1810 nM	6.14	1430 nM	3 µM	1980 nM	3.95 µM	1740 nM	3.56 µM	2110 nM	4.45 µM	1590 nM	3.35 µM	3860	14.9 µM	1630 nM	3.07 µM	1500	3.34 µM	2340 nM	4.99 µM
C=C1C(=O)O[C@H]2[C@H]1CC/C(COC(=O)c1cn(C)c3ccccc13)=C\CC[C@@]1(C)O[C@@H]21	400 nM	5.13	399 nM	1.62 µM	1380 nM	2.82 µM	301 nM	1.1 µM	1320 nM	2.65 µM	539 nM	2.26 µM	1810	3.76 µM	1620 nM	3.34 µM	400	1.98 µM	1830 nM	4.79 µM
COc1cccc(-n2ncc3c(N/N=C/c4ccc(C)cc4)ncnc32)c1	> 25000 nM	> 25	> 25000 nM	> 25 µM	> 25000 nM	> 25 µM	> 25000 nM	> 25 µM	> 21700 nM	> 25 µM	> 25000 nM	> 25 µM	> 25000	> 25 µM	24100 nM	> 25 µM	7200	> 25 µM	> 25000 nM	> 25 µM
CCN(CC)CCC(=O)OC1C(C)=CC(C)C(=O)CC(C(C)CC2CCC(O)C(OC)C2)OC(=O)C2CCCCN2C(=O)C(=O)[C@@]2(O)OC(CCC2C)CC(OC)\C(C)=C/C=C/C=C/C(C)CC(C)C(=O)C1OC (stereo partly drawn)		21.4		26.5 µM		18.9 µM		25.3 µM		27.1 µM		20.6 µM		21.1 µM		18.8 µM		16.1 µM		21.2 µM
c1ccc2cc(Cn3cc[n+](Cc4ccc5ccccc5c4)c3)ccc2c1	1020 nM	14.5	393 nM	3.11 µM	1370 nM	4.35 µM	2050 nM	13.6 µM	587 nM	2.55 µM	14900 nM	29.5 µM	3260	17 µM	413 nM	2.49 µM	1870	10.5 µM	1150 nM	2.62 µM
C[C@]12CC[C@@H]3c4ccc(O)cc4CC[C@H]3[C@@H]1CC[C@@H]2NS(=O)(=O)c1cccc(Cl)c1	3140 nM	11.8	1910 nM	7.15 µM	2460 nM	5.73 µM	3910 nM	15 µM	2900 nM	12.3 µM	2280 nM	7.2 µM	4460	15.3 µM	2360 nM	6.75 µM	2920	7.46 µM	1960 nM	4.24 µM
COC1(OC)C2(Cl)C(Cl)=C(Cl)C1(Cl)C1c3ccc(C(C)=O)c4cccc(c34)C12 (stereo not drawn)		> 100		> 70.2 µM		50.1 µM		> 100 µM		> 100 µM		> 100 µM		> 100 µM		58 µM		> 100 µM		> 100 µM
CC(=O)O[C@@]12CO[C@@H]1C[C@H](O)[C@@]1(C)C(=O)[C@H](O)C3=C(C)[C@@H](OC(=O)[C@H](O)[C@@H](NC(=O)OC(C)(C)C)c4ccccc4)C[C@@](O)([C@@H](OC(=O)c4ccccc4)C12)C3(C)C (stereo partly drawn)	< 5 nM	50		52.3 µM	35.5 nM	> 100 µM	< 5 nM	50 µM and > 100 µM	32300 nM	> 100 µM	44.1 nM and 327 nM	50 µM and > 100 µM	< 5	50 µM and > 100 µM	11300 nM	29.6 µM	< 5	50 µM and 33.5 µM	< 5 nM	50 µM and 27.7 µM
